Test results taken from US10221163B2 (priority 2015, dated 2019).

Key:
[1] = tested on: Klebsiella pneumoniae expressing VIM-1 (IHMA599644); type: cell-based; conditions: for Klebsiella pneumoniae expressing VIM-1 (IHMA599644) MITC95: with imipenem 1 μg/ml, 95% inhibition of bacterial growth; for Klebsiella pneumoniae MITC95: VIM-1 strain IHMA599644, with imipenem 1 μg/ml, 95% inhibition of growth
Method: (§1) Antibiotic Potentiation Activity: Determination of Synergistic Concentration
(§2) The bacterial strains tested included the clinical strains Escherichia coli expressing NDM-1 (CLB30005, CLB30016), Serratia marcescens expressing IMP-1 (CL5741), and Klebsiella pneumoniae expressing VIM-1 (IHMA599644). Inhibitor activity was measured in the presence and absence of imipenem in a 384-well microplate.
(§3) The clinical strains CLB30016, CL5741 and IHMA599644 were grown on trypticase soy agar containing 5% sheep's blood. The bacteria on agar plates were incubated at 35° C. with humidity overnight. The following day, individual colonies from each clinical strain were picked and resuspended in 5 ml saline to attain an OD600 of […], for CLB30016, CL5741 and IHMA599644, respectively. These were further diluted 1:100 into 1.1×CAMHB and used to inoculate the test wells as described below.
(§4) Imipenem in 10 mM 3-(N-morpholino)propanesulfonic acid (MOPS, pH 7) was stored in single use aliquots at −80° C. […] On the day of the assay, 4 μl of antibiotic was added to 45 ul of bacteria followed by 1 μl of test compound and mixed by pipetting and with an orbital shaker. The concentration of antibiotic used in the assay was 1 μg/ml. Microplates were covered and incubated at 35° C. for 22 hours to 24 hours. At the end of the incubation, absorbance was determined using a spectrophotometer.

[2] = tested on: Serratia marcescens expressing IMP-1 (CL5741); type: cell-based; conditions: for Serratia marcescens expressing IMP-1 (CL5741) MITC95: with imipenem 1 μg/ml, 95% inhibition of bacterial growth; for Serratia marcescens MITC95: IMP-1 strain CL5741, with imipenem 1 μg/ml, 95% inhibition of growth
Method: as §1, §2, §3, §4

[3] = tested on: Escherichia coli expressing NDM-1 (CLB30005, CLB30016); type: cell-based; conditions: with imipenem 1 μg/ml; for Escherichia coli expressing NDM-1 (CLB30016) MITC95: 95% inhibition of bacterial growth; for Escherichia coli MITC95: NDM-1 strain, 95% inhibition of growth
Method: as §1, §2, §3, §4

[4] = tested on: Pseudomonas aeruginosa efflux+ (MB9798), IMP-1; type: cell-based; conditions: concentration restoring susceptibility to imipenem at 2 μg/mL in the presence of a class A, C, D serine β-lactamase inhibitor closely related to relebactam
Text: (§5) The strain background was Pseudomonas aeruginosa PAO1.
(§6) The strain set was then used as a pair to determine the effect of metallo-β-lactamase inhibitors of Formula I on the MIC of imipenem and/or ceftazidime. A fixed concentration of antibiotic was included in standard microbroth MIC tests, usually at the CLSI (Clinical and Laboratory Standards Institute) breakpoint concentration. A fixed amount of a class A/C beta-lactamase inhibitor was also included to inhibit the resident Pseudomonas AmpC enzyme. A serial titration of the metallo-β-lactamase inhibitor was included and the concentration of metallo-β-lactamase inhibitor which restores susceptibility of the strain to the included antibiotic was recorded. That concentration of metallo-β-lactamase inhibitor was then compared between the two strains to determine the fold difference between the efflux+ (MB9798) and efflux− (MB9799) strains. This was taken as an indication of the extent to which the MBLi is subject to efflux.

IMP-1 = IMP-1 (Serratia marcescens, UniProt P52699); experiment: biochemical; type: biochemical; conditions: fluorescence assay, CCF2-FA substrate, 2 pM enzyme, 2 hours at 25° C.; read-out: IMP-1 IC50
Sequence of IMP-1 (P52699 whole entry, looked up, species assumed): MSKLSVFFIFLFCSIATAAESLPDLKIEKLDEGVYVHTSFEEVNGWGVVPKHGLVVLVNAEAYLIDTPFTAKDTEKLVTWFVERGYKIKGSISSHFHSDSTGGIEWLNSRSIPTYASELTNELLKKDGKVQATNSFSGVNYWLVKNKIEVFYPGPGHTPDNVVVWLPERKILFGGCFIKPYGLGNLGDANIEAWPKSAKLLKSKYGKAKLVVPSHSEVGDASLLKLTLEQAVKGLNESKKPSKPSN
Method: (§7) Enzyme Activity: Determination of IC50
(§8) The Class B enzyme activities were measured in the presence of the test inhibitor in a fluorescence assay against a commercially available substrate consisting of a cephalosporin core linking 7-hydroxycoumarin to fluorescein (CCF2-FA). […] In a 384-well microplate, the test inhibitor was incubated with the metallo-β-lactamase enzyme and the substrate for 2 hours at 25° C. […] The IC50 value was determined from semi-logarithmic plots of enzyme inhibition versus inhibitor concentration, with a curve generated using a 4-parameter fit.

NDM-1 = NDM-1 (Klebsiella pneumoniae, UniProt C7C422); experiment: biochemical; type: biochemical; conditions: fluorescence assay, CCF2-FA substrate, 1 pM enzyme, 2 hours at 25° C.; read-out: NDM-1 IC50
Sequence of NDM-1 (C7C422 whole entry, looked up, species assumed): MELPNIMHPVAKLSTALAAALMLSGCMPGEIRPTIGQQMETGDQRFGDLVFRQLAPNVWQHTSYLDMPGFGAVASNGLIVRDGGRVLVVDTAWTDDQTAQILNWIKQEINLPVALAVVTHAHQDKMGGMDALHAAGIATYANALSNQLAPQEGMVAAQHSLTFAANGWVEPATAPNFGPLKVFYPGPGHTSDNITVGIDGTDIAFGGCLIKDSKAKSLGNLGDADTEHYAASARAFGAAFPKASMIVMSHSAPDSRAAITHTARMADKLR
Method: as §7, §8

[5] = tested on: Pseudomonas aeruginosa efflux− (MB9799), IMP-1; type: cell-based; conditions: concentration restoring susceptibility to imipenem at 2 μg/mL in the presence of a class A, C, D serine β-lactamase inhibitor closely related to relebactam
Text: as §5, §6

## Nc1nc2c(-c3ccc(S(=O)(=O)NCCN4CCC4)c(S(N)(=O)=O)c3-c3nnn[nH]3)cccc2s1 [Example 21, 4-(2-amino-1,3-benzothiazol-4-yl)-N1-(2-azetidin-1-ylethyl)-3-(1H-tetrazol-5-yl)benzene-1,2-disulfonamide]
[1]
  Klebsiella pneumoniae expressing VIM-1 (IHMA599644) MITC95: 6.25 µM
[2]
  Serratia marcescens expressing IMP-1 (CL5741) MITC95: 3.125 µM
[3]
  Escherichia coli expressing NDM-1 (CLB30016) MITC95: 6.25 µM
[4]
  P. aeruginosa expressing IMP-1, efflux + (MB9798) MITC95: 1.563 µM
IMP-1
  IC50: 383 pM
NDM-1
  IC50: 64.2 pM
[5]
  P. aeruginosa expressing IMP-1, efflux − (MB9799) MITC95: 1.563 µM

## Nc1nc2c(-c3ccc(S(=O)(=O)NCCN4CCCCC4=O)c(S(N)(=O)=O)c3-c3nnn[nH]3)cccc2s1 [Example 33, 4-(2-amino-1,3-benzothiazol-4-yl)-N1-[2-(2-oxopiperidin-1-yl)ethyl]-3-(1H-tetrazol-5-yl)benzene-1,2-disulfonamide]
[1]
  Klebsiella pneumoniae expressing VIM-1 (IHMA599644) MITC95: 25 µM
[2]
  Serratia marcescens expressing IMP-1 (CL5741) MITC95: 6.25 µM
[3]
  Escherichia coli expressing NDM-1 (CLB30016) MITC95: 25 µM
[4]
  P. aeruginosa expressing IMP-1, efflux + (MB9798) MITC95: 12.5 µM
IMP-1
  IC50: 275 pM
NDM-1
  IC50: 73.1 pM
[5]
  P. aeruginosa expressing IMP-1, efflux − (MB9799) MITC95: 3.125 µM

## CS(=O)(=O)C1CCN(S(=O)(=O)c2ccc(-c3cccc4sc(N)nc34)c(-c3nnn[nH]3)c2S(N)(=O)=O)C1 (centres unmarked) [Example 45, 3-(2-amino-1,3-benzothiazol-4-yl)-6-{[3-(methylsulfonyl)pyrrolidin-1-yl]sulfonyl}-2-(1H-tetrazol-5-yl)benzenesulfonamide]
[1]
  Klebsiella pneumoniae expressing VIM-1 (IHMA599644) MITC95: 25 µM
[2]
  Serratia marcescens expressing IMP-1 (CL5741) MITC95: 6.25 µM
[3]
  Escherichia coli expressing NDM-1 (CLB30016) MITC95: 50 µM
[4]
  P. aeruginosa expressing IMP-1, efflux + (MB9798) MITC95: 25 µM
IMP-1
  IC50: 1650 pM
[5]
  P. aeruginosa expressing IMP-1, efflux − (MB9799) MITC95: 3.125 µM

## Nc1nc2c(-c3ccc(S(=O)(=O)N[C@H]4C[C@H](N)C4)c(S(N)(=O)=O)c3-c3nnn[nH]3)cccc2s1 [Example 71, 4-(2-amino-1,3-benzothiazol-4-yl)-N^1-(trans-3-aminocyclobutyl)-3-(1H-tetrazol-5-yl)benzene-1,2-disulfonamide]
[1]
  Klebsiella pneumoniae expressing VIM-1 (IHMA599644) MITC95: 3.125 µM
[2]
  Serratia marcescens expressing IMP-1 (CL5741) MITC95: 3.125 µM
[3]
  Escherichia coli expressing NDM-1 (CLB30016) MITC95: 1.563 µM
[4]
  P. aeruginosa expressing IMP-1, efflux + (MB9798) MITC95: 1.563 µM
NDM-1
  IC50: 61.2 pM
[5]
  P. aeruginosa expressing IMP-1, efflux − (MB9799) MITC95: 1.563 µM

## Nc1nc2c(-c3ccc(S(=O)(=O)NCC4(N)CCOC4)c(S(N)(=O)=O)c3-c3nnn[nH]3)cccc2s1.O=CO (centres unmarked) [Example 114, 3-((4-(2-aminobenzo[d]thiazol-4-yl)-2-sulfamoyl-3-(1H-tetrazol-5-yl)phenylsulfonamido)methyl)tetrahydrofuran-3-aminium formate]
[1]
  Klebsiella pneumoniae expressing VIM-1 (IHMA599644) MITC95: 6.25 µM
[2]
  Serratia marcescens expressing IMP-1 (CL5741) MITC95: 3.125 µM
[3]
  Escherichia coli expressing NDM-1 (CLB30016) MITC95: 3.125 µM
[4]
  P. aeruginosa expressing IMP-1, efflux + (MB9798) MITC95: 3.125 µM
NDM-1
  IC50: 64.9 pM
[5]
  P. aeruginosa expressing IMP-1, efflux − (MB9799) MITC95: 3.125 µM

## Nc1nc2c(-c3ccc(S(=O)(=O)NC[C@]4(F)CCCNC4)c(S(N)(=O)=O)c3-c3nnn[nH]3)cccc2s1.O=CO [Example 122, (S)-3-(((4-(2-aminobenzo[d]thiazol-4-yl)-2-sulfamoyl-3-(1H-tetrazol-5-yl)phenyl)sulfonamido)methyl)-3-fluoropiperidin-1-ium formate]
[1]
  Klebsiella pneumoniae expressing VIM-1 (IHMA599644) MITC95: 3.125 µM
[2]
  Serratia marcescens expressing IMP-1 (CL5741) MITC95: 1.563 µM
[3]
  Escherichia coli expressing NDM-1 (CLB30016) MITC95: 1.563 µM
[4]
  P. aeruginosa expressing IMP-1, efflux + (MB9798) MITC95: 3.125 µM
IMP-1
  IC50: 282 pM
NDM-1
  IC50: 32.9 pM
[5]
  P. aeruginosa expressing IMP-1, efflux − (MB9799) MITC95: 1.563 µM

## CN(C)C(=O)c1ccccc1-c1ccc(S(=O)(=O)N[C@@H]2CCNC2)c(S(N)(=O)=O)c1-c1nnn[nH]1 [Example 129, (R)-N,N-dimethyl-4′-(N-(pyrrolidin-3-yl)sulfamoyl)-3′-sulfamoyl-2′-(1H-tetrazol-5-yl)-[1,1′-biphenyl]-2-carboxamide]
[1]
  Klebsiella pneumoniae expressing VIM-1 (IHMA599644) MITC95: 12.5 µM
[2]
  Serratia marcescens expressing IMP-1 (CL5741) MITC95: 6.25 µM
[3]
  Escherichia coli expressing NDM-1 (CLB30016) MITC95: 6.25 µM
[4]
  P. aeruginosa expressing IMP-1, efflux + (MB9798) MITC95: 12.5 µM
IMP-1
  IC50: 9080 pM
NDM-1
  IC50: 278 pM
[5]
  P. aeruginosa expressing IMP-1, efflux − (MB9799) MITC95: 3.125 µM

## Nc1nc2c(-c3ccc(S(=O)(=O)N[C@@H]4CCNC4)c(S(N)(=O)=O)c3-c3nnn[nH]3)cc(F)cc2[nH]1 [Example 181, (R)-4-(2-amino-6-fluoro-1H-benzo[d]imidazol-4-yl)-N^1-(pyrrolidin-3-yl)-3-(1H-tetrazol-5-yl)benzene-1,2-disulfonamide]
[1]
  Klebsiella pneumoniae expressing VIM-1 (IHMA599644) MITC95: 1.563 µM
[2]
  Serratia marcescens expressing IMP-1 (CL5741) MITC95: 0.7813 µM
[3]
  Escherichia coli expressing NDM-1 (CLB30016) MITC95: 0.3906 µM
[4]
  P. aeruginosa expressing IMP-1, efflux + (MB9798) MITC95: 0.3906 µM
IMP-1
  IC50: 273 pM
NDM-1
  IC50: 37.2 pM
[5]
  P. aeruginosa expressing IMP-1, efflux − (MB9799) MITC95: 0.7813 µM

## N=C(N)c1nc2c(-c3ccc(S(N)(=O)=O)c(S(N)(=O)=O)c3-c3nn[nH]n3)cccc2s1 [Example 192, 4-(3,4-disulfamoyl-2-(2H-tetrazol-5-yl)phenyl)benzo[d]thiazole-2-carboximidamide]
[1]
  Klebsiella pneumoniae expressing VIM-1 (IHMA599644) MITC95: 1.563 µM
[2]
  Serratia marcescens expressing IMP-1 (CL5741) MITC95: 0.7813 µM
[3]
  Escherichia coli expressing NDM-1 (CLB30016) MITC95: 1.563 µM
[4]
  P. aeruginosa expressing IMP-1, efflux + (MB9798) MITC95: 1.563 µM
IMP-1
  IC50: 699 pM
NDM-1
  IC50: 274 pM
[5]
  P. aeruginosa expressing IMP-1, efflux − (MB9799) MITC95: 0.7813 µM

## Nc1ccc(-c2ccc(S(=O)(=O)NCCc3c[nH]cn3)c(S(N)(=O)=O)c2-c2nn[nH]n2)cn1 [Example 217, N^1-(2-(1H-imidazol-4-yl)ethyl)-4-(6-aminopyridin-3-yl)-3-(2H-tetrazol-5-yl)benzene-1,2-disulfonamide]
[1]
  Klebsiella pneumoniae expressing VIM-1 (IHMA599644) MITC95: 3.125 µM
[2]
  Serratia marcescens expressing IMP-1 (CL5741) MITC95: 1.563 µM
[3]
  Escherichia coli expressing NDM-1 (CLB30016) MITC95: 0.3906 µM
[4]
  P. aeruginosa expressing IMP-1, efflux + (MB9798) MITC95: 12.5 µM
NDM-1
  IC50: 447 pM
[5]
  P. aeruginosa expressing IMP-1, efflux − (MB9799) MITC95: 1.563 µM

## C[N+]1(C)CC(NS(=O)(=O)c2ccc(-c3cccc4[nH]c(N)nc34)c(-c3nn[nH]n3)c2S(N)(=O)=O)C1.O=C([O-])O [Example 245, 3-(4-(2-Amino-1H-benzo[d]imidazol-4-yl)-2-sulfamoyl-3-(2H-tetrazol-5-yl)phenylsulfonamido)-1,1-dimethylazetidin-1-ium hydrogencarbonate]
[1]
  Klebsiella pneumoniae MITC95: 3.125 µM
[2]
  Serratia marcescens MITC95: 1.563 µM
[3]
  Escherichia coli MITC95: 0.7813 µM
[4]
  P. aeruginosa expressing IMP-1, efflux + (MB9798) MITC95: 1.563 µM
[5]
  P. aeruginosa expressing IMP-1, efflux − (MB9799) MITC95: 1.563 µM

## Nc1ncc(-c2ccc(S(=O)(=O)N[C@@H]3CCNC3)c(S(N)(=O)=O)c2-c2nn[nH]n2)s1 [Example 284]
[1]
  Klebsiella pneumoniae MITC95: 1.563 µM
[2]
  Serratia marcescens MITC95: 0.7813 µM
[3]
  Escherichia coli MITC95: 1.563 µM
[4]
  P. aeruginosa expressing IMP-1, efflux + (MB9798) MITC95: 0.7813 µM
IMP-1
  IC50: 411 pM
[5]
  P. aeruginosa expressing IMP-1, efflux − (MB9799) MITC95: 0.7813 µM
